Experimental data reported in patent US9371265B2, “Compositions and methods related to inhibitors of JAK kinase” (EP PHARMA, INC., priority 2012, dated 2016).

Assays:
YANK3 = YANK3 (Homo sapiens, UniProt Q86UX6); test: Kinase panel: YANK3; type: biochemical; details: 10 μM EP009
Description: (§1) Achieving JAK3 selectivity remains a significant challenge in the development of new small molecules for the treatment of cancer and immune-derived diseases. As such, the inventors employed cell-based screening assays of small-molecule libraries based upon the chemical scaffold of the established JAK3 inhibitor NC1153 (Stepkowski et al., J Immunol. (2005), 175(7):4236-4246) EP009 (FIG. 2A) was selected as a lead compound due to improved intrinsic stability (>95% purity in various solvents at 37° C. for 24 hours; FIG. 3) and high-degree of JAK3 selectivity. To test JAK3 versus JAK2 specificity of EP009, the IL-2/JAK3-dependent Kit225, and IL-3/JAK2-dependent BaF/3 cell lines were used. Kit225 and BaF/3 cells growing in the presence of IL-2 or IL-3, respectively, were treated with ascending concentrations of EP009 for 12 hours and cellular JAK3 and JAK2 tyrosine phosphorylation levels detected by Western blot analysis (FIGS. 2B and 2C). Following densitometric analysis, EP009 was determined to dose-dependently reduce IL-2-mediated JAK3 tyrosine phosphorylation with a cellular 50% inhibitory concentration (IC50) between 10 and 20 μM (FIG. 2B). […] To globally evaluate specificity, the inhibitory activity of EP009 was measured against a panel of protein kinases distributed throughout the kinome using the scanEDGE profiling service (KINOMEscan). […]

JAK2 = target: T1, JAK2 (Mus musculus, UniProt Q62120); test: IL-3-induced JAK2 tyrosine phosphorylation in BaF/3 cells (IP/Western blot); type: cell-based, murine; details: 12 hours, concentrations up to 50 μM
T1 construct: cellular JAK3 and JAK2 tyrosine phosphorylation levels detected by Western blot analysis; endogenous in cells; host or cells: Ba/F3 (BaF/3)
T1 sequence (Q62120 whole entry): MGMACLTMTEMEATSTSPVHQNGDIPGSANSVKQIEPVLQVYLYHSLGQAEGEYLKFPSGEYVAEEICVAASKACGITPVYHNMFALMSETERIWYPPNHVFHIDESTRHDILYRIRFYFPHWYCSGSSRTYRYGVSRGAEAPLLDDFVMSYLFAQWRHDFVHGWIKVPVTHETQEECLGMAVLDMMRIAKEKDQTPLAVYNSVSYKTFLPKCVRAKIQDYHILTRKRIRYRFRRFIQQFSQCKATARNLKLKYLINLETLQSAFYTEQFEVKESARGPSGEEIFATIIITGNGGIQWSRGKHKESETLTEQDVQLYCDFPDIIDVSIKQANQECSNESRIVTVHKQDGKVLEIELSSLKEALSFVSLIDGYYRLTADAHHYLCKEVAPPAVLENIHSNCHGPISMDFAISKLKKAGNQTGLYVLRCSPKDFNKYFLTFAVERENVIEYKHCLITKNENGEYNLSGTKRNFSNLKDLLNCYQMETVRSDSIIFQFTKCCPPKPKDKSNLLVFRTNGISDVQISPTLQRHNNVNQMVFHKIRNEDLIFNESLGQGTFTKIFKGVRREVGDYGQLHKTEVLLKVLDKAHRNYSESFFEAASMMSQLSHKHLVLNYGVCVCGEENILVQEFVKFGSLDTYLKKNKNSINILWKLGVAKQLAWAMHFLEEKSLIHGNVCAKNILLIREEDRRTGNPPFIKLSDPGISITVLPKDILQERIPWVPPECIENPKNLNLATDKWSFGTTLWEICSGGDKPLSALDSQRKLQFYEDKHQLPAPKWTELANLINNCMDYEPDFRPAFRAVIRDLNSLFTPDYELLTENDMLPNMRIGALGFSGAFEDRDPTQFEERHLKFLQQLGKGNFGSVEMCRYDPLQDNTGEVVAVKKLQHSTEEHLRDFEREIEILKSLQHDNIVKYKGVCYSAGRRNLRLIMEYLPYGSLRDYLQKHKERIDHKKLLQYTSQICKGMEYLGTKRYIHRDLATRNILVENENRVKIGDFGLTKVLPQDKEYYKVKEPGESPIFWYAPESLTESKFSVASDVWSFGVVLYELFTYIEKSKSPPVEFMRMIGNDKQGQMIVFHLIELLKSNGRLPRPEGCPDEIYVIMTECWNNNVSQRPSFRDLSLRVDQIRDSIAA
Description: (§2) FIGS. 2A-2F. Selective inhibition of JAK3 by EP009 results in loss of JAK3-dependent tumor cell line viability with no detectable off-target effects in key cell types. (A) Chemical structure of EP009 (M.W. 224.34). (B) Kit225 or (C) BaF/3 cells cultured in the presence of IL-2 or IL-3, respectively, were treated with vehicle (PBS; lane a) or increasing amounts of EP009 (0-50 μM; lanes b-h) for 12 hours. Cells were then lysed, clarified, and immunoprecipitated (IP) with anti-JAK3 (α-JAK3) or anti-JAK2 (α-JAK2), and subjected to Western blot (WB) analysis with anti-phosphotyrosine (α-pY). Blots were stripped and reprobed with corresponding antibody to verify equivalent protein loading. […] (E) Kit225 or BaF/3 cells were cultured with increasing amounts of EP009 (0-10 μM) for 72 hours and cell viability measured with the MTS tetrazolium salt assay. Values represent mean absorbance (OD490-OD650 nm) normalized to vehicle (PBS) treated control cells, while error bars represent the standard deviation (n=3). (F) HEK293, HEPG2, or naïve primary human PBMCs were cultured with increasing amounts of EP009 (0-10 μM) for 72 hours and cell viability measured with the MTS tetrazolium salt assay. Values represent mean absorbance (OD490-OD650 nm) normalized to vehicle (PBS) treated control cells, while error bars represent the standard deviation (n=3). […]

ULK2 = ULK2 (Homo sapiens, UniProt Q8IYT8); test: Kinase panel: ULK2; type: biochemical; details: 10 μM EP009
Description: as §1

HEK293 = HEK293 cell viability (MTS); type: cell-based, human; details: 72 hours, concentrations giving complete loss of JAK3-dependent cell viability (0-10 μM)
Description: as §2

CSNK1D = CSNK1D (Homo sapiens, UniProt P48730); test: Kinase panel: CSNK1D; type: biochemical; details: 10 μM EP009
Chain of CSNK1D (P48730 whole entry): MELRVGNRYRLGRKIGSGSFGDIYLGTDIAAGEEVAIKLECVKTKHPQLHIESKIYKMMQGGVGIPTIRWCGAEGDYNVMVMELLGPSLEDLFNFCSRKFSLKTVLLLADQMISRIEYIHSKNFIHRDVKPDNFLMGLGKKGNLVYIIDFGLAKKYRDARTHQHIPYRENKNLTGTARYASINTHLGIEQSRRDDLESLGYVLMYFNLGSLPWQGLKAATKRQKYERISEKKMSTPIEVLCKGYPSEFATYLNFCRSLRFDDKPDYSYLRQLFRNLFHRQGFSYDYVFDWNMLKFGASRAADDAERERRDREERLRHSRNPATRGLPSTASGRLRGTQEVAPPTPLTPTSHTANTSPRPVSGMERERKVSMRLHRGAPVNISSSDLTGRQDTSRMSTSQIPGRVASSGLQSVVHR
Description: as §1

immunopurified JAK3 = target: T2, immunopurified JAK3 (Homo sapiens, UniProt P52333); test: In vitro JAK3 autokinase assay; type: biochemical; details: 1 μM ATP, densitometry analysis
T2 construct: immunopurified JAK3 from YT cells resuspended in kinase buffer; endogenous in cells; host or cells: YT cells (immunoprecipitate)
T2 sequence (P52333 whole entry): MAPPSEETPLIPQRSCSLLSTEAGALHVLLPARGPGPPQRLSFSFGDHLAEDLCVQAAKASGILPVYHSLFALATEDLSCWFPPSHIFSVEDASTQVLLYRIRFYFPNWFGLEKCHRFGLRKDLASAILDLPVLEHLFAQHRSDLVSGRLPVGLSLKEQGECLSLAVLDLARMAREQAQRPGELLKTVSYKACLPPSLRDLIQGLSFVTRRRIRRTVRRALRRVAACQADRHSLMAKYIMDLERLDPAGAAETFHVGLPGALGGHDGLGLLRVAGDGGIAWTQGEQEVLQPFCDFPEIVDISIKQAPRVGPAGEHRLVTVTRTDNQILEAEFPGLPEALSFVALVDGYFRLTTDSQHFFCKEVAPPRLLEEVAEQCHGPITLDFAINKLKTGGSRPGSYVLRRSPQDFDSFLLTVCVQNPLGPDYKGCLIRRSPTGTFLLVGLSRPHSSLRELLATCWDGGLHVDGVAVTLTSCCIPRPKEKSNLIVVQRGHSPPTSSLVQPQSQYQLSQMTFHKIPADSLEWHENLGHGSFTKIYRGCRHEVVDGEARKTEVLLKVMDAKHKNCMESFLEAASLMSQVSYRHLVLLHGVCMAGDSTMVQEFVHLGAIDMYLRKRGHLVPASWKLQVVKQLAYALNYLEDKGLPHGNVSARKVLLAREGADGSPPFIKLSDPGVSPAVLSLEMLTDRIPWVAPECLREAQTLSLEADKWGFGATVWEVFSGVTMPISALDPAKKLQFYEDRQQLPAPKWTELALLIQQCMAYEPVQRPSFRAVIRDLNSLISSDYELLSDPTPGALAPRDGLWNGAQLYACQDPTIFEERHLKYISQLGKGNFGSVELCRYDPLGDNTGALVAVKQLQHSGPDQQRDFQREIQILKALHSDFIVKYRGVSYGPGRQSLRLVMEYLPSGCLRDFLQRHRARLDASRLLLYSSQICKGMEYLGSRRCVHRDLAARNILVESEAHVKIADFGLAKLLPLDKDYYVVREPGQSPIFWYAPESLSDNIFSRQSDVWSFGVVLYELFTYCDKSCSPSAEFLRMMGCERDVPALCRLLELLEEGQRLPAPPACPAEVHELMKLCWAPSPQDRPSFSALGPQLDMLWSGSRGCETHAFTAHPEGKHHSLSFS

IGF1R = IGF1R (Homo sapiens, UniProt P08069); test: Kinase panel: IGF1R; type: biochemical; details: 10 μM EP009
Chain of IGF1R (P08069 31-1367): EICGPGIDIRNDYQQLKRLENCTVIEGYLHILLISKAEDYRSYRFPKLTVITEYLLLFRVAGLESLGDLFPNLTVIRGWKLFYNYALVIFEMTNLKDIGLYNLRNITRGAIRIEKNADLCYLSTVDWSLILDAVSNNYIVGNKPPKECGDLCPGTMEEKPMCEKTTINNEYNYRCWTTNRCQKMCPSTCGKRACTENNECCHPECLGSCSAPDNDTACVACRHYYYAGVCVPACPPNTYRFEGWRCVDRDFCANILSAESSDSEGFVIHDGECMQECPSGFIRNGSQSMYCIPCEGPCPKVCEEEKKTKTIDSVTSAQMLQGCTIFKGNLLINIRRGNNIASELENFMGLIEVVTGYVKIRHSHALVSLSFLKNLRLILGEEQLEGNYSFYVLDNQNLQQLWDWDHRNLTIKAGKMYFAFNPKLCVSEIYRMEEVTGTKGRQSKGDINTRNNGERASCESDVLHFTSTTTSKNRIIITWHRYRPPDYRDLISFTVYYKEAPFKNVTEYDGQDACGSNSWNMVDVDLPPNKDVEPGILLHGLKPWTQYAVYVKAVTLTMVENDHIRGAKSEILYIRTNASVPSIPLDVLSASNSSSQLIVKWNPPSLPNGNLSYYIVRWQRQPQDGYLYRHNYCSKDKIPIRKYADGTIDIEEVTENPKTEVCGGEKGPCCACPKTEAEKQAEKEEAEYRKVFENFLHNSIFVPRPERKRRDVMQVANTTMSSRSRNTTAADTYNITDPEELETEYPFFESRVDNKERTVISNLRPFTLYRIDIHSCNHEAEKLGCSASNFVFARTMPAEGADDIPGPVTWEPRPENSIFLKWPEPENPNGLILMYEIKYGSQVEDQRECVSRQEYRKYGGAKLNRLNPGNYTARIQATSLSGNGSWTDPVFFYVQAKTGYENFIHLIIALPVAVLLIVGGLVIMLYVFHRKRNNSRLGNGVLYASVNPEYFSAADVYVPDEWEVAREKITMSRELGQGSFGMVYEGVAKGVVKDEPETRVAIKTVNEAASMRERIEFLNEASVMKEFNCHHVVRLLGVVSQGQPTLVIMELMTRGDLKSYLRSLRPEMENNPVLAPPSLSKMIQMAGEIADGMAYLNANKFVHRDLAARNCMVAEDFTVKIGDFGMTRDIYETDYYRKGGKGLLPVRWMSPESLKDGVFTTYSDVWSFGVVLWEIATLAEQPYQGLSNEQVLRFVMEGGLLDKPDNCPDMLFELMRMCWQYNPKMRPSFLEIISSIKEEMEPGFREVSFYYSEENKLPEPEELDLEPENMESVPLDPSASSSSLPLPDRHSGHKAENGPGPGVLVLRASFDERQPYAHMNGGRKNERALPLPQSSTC
Description: as §1

JAK3 = JAK3 (Homo sapiens, UniProt P52333); test: IL-2-mediated JAK3 tyrosine phosphorylation in Kit225 cells (IP/Western blot, densitometry); type: cell-based; design: cellular JAK3 and JAK2 tyrosine phosphorylation levels detected by Western blot analysis; endogenous in cells; host or cells: Kit225; details: 12 hours, densitometric analysis, read-out: cellular IC50, IL-2-mediated JAK3 tyrosine phosphorylation
Chain of JAK3 (P52333 whole entry): as the sequence (P52333 whole entry) above
Description: as §2

Chain of YANK3 (Q86UX6 whole entry): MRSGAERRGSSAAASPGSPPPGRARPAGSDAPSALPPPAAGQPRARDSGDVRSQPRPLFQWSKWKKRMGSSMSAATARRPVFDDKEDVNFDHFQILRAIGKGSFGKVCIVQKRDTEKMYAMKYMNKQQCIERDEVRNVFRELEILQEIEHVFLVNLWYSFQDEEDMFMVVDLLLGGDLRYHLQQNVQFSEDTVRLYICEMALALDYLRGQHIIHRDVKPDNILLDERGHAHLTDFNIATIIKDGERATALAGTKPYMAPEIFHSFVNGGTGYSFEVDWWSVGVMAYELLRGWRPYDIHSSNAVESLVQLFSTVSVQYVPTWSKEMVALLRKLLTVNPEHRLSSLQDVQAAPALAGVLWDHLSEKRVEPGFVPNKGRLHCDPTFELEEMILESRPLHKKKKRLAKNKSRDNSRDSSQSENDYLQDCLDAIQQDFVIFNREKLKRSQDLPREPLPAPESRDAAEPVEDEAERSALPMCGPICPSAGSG

SMILES: C=C1CCCCCCCCCC(CO)C1=O (centres unmarked) [EP009, 2-(Hydroxymethyl)-12-methylenecyclododecanone]
- Kinase Activity (% of Control) (YANK3): 98 % of Control
- effect on IL-3-induced JAK2 tyrosine phosphorylation (JAK2): no detectable effect
- Kinase Activity (% of Control) (ULK2): 58 % of Control
- effect on HEK293 cell viability (HEK293): no detectable loss of cell viability
- Kinase Activity (% of Control) (CSNK1D): 100 % of Control
- IC50 (immunopurified JAK3): 1 to 2.5 µM
- Kinase Activity (% of Control) (IGF1R): 100 % of Control
- IC50 (JAK3): 10 to 20 µM
